Measurements as given in patent US9340559B2, “Proteasome inhibitor delanzomib for use in the treatment of lupus” (Cephalon, Inc., priority 2011, dated 2016).

What was measured:
IκBα [1] = assay: IκBα accumulation ELISA in kidney 3 hours post dose, MRL/lpr mice; assay type: in vivo, mouse
Method: (§1) Samples are homogenized frozen using a PT 10-35 Polytron homogenizer (VWR, no. 97036-082). […] Spleen proteasome activity is analyzed using 20S fluorogenic assay (Cayman Chemical Company, Cat #10008041, Lot #0414698-1) and modulation of proteasome activity in the kidney is analyzed using the IκBα accumulation ELISA assay (Cell Signaling, Cat #7355, Lot #17).

NZM mice [2] = assay: Splenomegaly (spleen mass), NZM mice (Example 2); assay type: in vivo, mouse
NZM mice [3] = assay: Antibody secreting B-cell Elispot (anti-chromatin, total IgG ASC), spleens of NZM mice (Example 2); assay type: in vivo, mouse
Method: (§2) FIG. 34 depicts the frequency of anti-chromatin antibody secreting cells in the spleens of NZM mice. NZM treated mice spleens were processed for splenocytes for ex vivo Elispot assays. Elispot wells were coated with 10 μg/mL of boiled chicken chromatin or ovalbumin protein. Fresh, whole splenocytes were added to each well at 50,000 cells per well in cell culture medium. Cells were incubated overnight at 37° C. Developed wells provided spots that were counted as frequency of ASCs per million splenocytes.
as §2, with “35” for “34”, “total IgG” for “anti-chromatin”, “anti-mouse IgG, IgH, and IgL chains.” for “boiled chicken chromatin or ovalbumin protein.”
B-cell Elispot components are ordered from MabTech (Nacka Strand, Sweden) and nitrocellulose IP filter plates are ordered from Millipore (Billerica, Mass.). Elispot wells are coated with either purified bovine thymus dsDNA (Sigma), purified bovine Smith antigen (GenWay) or boiled filtered purified chicken chromatin from lysed chicken red blood cells (Rockland, Gilbertsville, Pa.) at 10 μg/mL. Spleens are processed using glass homogenization (frosted slides). Dispersed cell contents are washed in sterile HBSS and RBCs lysed using 1×RBC lysis buffer (BioLegend, Cat #420301). Processed splenocytes are added to each well and are not stimulated with lipopolysaccharide (LPS) to avoid skewing of true ex vivo frequencies of antibody-secreting cell types (ASCs). Anti-mouse pan-IgG is used as a positive control for total IgG producing ASCs and is used to normalize results. Frequencies for each antigen are identified in an initial test phase for each model. For chromatin and total IgG only, 30,000 splenocytes are added to each well; for Smith antigen and dsDNA, 500,000 cells are added to each well. Different numbers of splenocytes are added for different antigens due to saturation limits of spot frequencies per well. B-cell Elispots are incubated overnight at 37° C. To develop each assay, secondary antibody is added to each well, incubated, washed and alkaline phosphatase strepavidin (Jackson ImmunoResearch, West Grove, Pa.) is used as the conjugate; substrate used is BCIP-NBT (MabTech, Cincinnati, Ohio). Plates are developed until spots are visible. All Elispot analyses are performed using an Immunospot C.T.L. scanner and Biospot software (Cellular Technology Ltd., Shaker Heights, Ohio). Results are shown as values from which media and cells only wells are subtracted. Some values are negative due to high background.

NZM mice [4] = assay: Collagen type-I cross-linker (CTx) bone resorption biomarker ELISA, serum of NZM mice; assay type: in vivo, mouse
Method: Assay is performed as instructed by the manufacturer. Briefly, biotinylated ratlaps antigen is first added in each well of a 96-well ELISA plate. This plate is covered and incubated for 30 minutes at RT. Plate is washed five times with washing solution and incubated with standards or unknown samples in appropriate wells followed by primary Ab. Incubate overnight for 18 hours at 4° C. followed by washing with buffer. Secondary incubation includes a peroxidase conjugated goat anti-rabbit IgG added to each well and incubation at RT for 1 hour. Incubation with chromogenic substrate solution for 15 minutes at RT in the dark develops the plate for analysis. Stopping solution halts the reaction, absorbance is measured within 2 hours at 450 nm.

IκBα [5] = assay: IκBα accumulation ELISA in kidney 3 hours post dosing, NZM mice (Example 2); assay type: in vivo, mouse
Method: as §1

NZM mice [6] = assay: Renal histopathology blinded scores, NZM mice (Example 3); assay type: in vivo, mouse
Method: FIG. 52 depicts renal histopathology scores from NZM mice (H&E stained paraffin wax embedded kidney tissues sections from 25 week old mice).
For histological analyses, the left kidney from each animal is removed and fixed in 10% buffered neutral formalin (EMD) for 48 hours on an orbital rocker at 25° C., then washed overnight with running dH2O and stored in 70% ethanol at 4° C. until ready to be processed. Kidney stains used for histological analyses included hematoxylin and eosin (H&E), Periodic Acid Schiff (PAS) and Trichrome stains (Wistar Institute, Philadelphia, Pa.). All 3 stained sections are used by the pathologist for scoring purposes. All histological scoring is performed blinded and by an independent board certified veterinary medical pathologist (Julie Engiles, VMD, DACVP). Multiple stains are used to determine score values. Images in FIG. 39 show worst affected area of section selected blindly by the pathologist.
Kidney IC-GN Scoring Method (Smith, Dong et al. 2007): […]

NZM mice [7] = assay: Serum C3 complement ELISA, NZM mice (Example 2)
20S proteasome = 20S proteasome activity in spleen (ex vivo fluorogenic assay), MRL/lpr mice; details: for PD EOS 20S proteasome, percent change vs vehicle: spleen
NZM mice [8] = assay: Antinuclear antibody ELISA (anti-Smith, anti-dsDNA), serum of NZM mice (Example 3)

CC(C)C[C@H](NC(=O)[C@@H](NC(=O)c1cccc(-c2ccccc2)n1)[C@@H](C)O)B(O)O [COMPOUND A, [(1R)-1-[[(2S,3R)-3-hydroxy-2-[6-phenyl-pyridine-2-carbonyl)amino]-1-oxobutyl]amino]-3-methylbutylboronic acid]
PD EOS IκBα accumulation, percent change vs vehicle (IκBα [1]; G1: 3 mg/kg iv, 1× wk): +537%
PD EOS IκBα accumulation, percent change vs vehicle (IκBα [1]; G2: 3 mg/kg iv, 2× wk): +227%
PD EOS IκBα accumulation, percent change vs vehicle (IκBα [1]; G3: 10 mg/kg po, 2× wk): +166%
Spleen mass EOS, percent change vs vehicle (NZM mice [2]; G1 3 mg/kg ip, 1× wk): −37%
splenomegaly decrease vs vehicle at EOS (NZM mice [2]; G1: 3 mg/kg ip once per week): 37%
Spleen mass EOS, percent change vs vehicle (NZM mice [2]; G2 3 mg/kg ip, 2× wk): −34%
splenomegaly decrease vs vehicle at EOS (NZM mice [2]; G2: 3 mg/kg ip twice weekly): 34%
spleen mass compared to once-a-week bortezomib (NZM mice [2]; p<0.05): reduced spleen mass significantly
anti-chromatin ASC decrease vs vehicle (NZM mice [3]; COMPOUND A groups): 96-100%
p, frequency of anti-chromatin antibody secreting cells in spleen vs G5 Bortezomib 0.3 mg/kg 1× wk ip (NZM mice [3]; G1 3 mg/kg 1× wk ip): p < 0.001
p, frequency of anti-chromatin antibody secreting cells in spleen vs G6 Bortezomib 0.3 mg/kg 2× wk ip (NZM mice [3]; G1 3 mg/kg 1× wk ip): p < 0.01
p, frequency of anti-chromatin antibody secreting cells in spleen vs G8 Dex 1.5 mg/kg 3× wk ip (NZM mice [3]; G1 3 mg/kg 1× wk ip): p < 0.01
p, frequency of anti-chromatin antibody secreting cells in spleen vs G9 Vehicle 1× wk ip (NZM mice [3]; G1 3 mg/kg 1× wk ip): p < 0.01
p, frequency of total IgG antibody secreting cells in spleen vs G5 Bortezomib 0.3 mg/kg 1× wk ip (NZM mice [3]; G1 3 mg/kg 1× wk ip): p < 0.01
p, frequency of total IgG antibody secreting cells in spleen vs G7 CTX 50 mg/kg 1× wk ip (NZM mice [3]; G1 3 mg/kg 1× wk ip): p < 0.01
p, frequency of total IgG antibody secreting cells in spleen vs G8 Dex 1.5 mg/kg 3× wk ip (NZM mice [3]; G1 3 mg/kg 1× wk ip): p < 0.01
p, frequency of total IgG antibody secreting cells in spleen vs G9 Vehicle 1× wk ip (NZM mice [3]; G1 3 mg/kg 1× wk ip): p < 0.05
ASC chromatin EOS, percent change vs vehicle (NZM mice [3]; G1 3 mg/kg ip, 1× wk): −96%
ASC total IgG EOS, percent change vs vehicle (NZM mice [3]; G1 3 mg/kg ip, 1× wk): −62%
p, frequency of anti-chromatin antibody secreting cells in spleen vs G5 Bortezomib 0.3 mg/kg 1× wk ip (NZM mice [3]; G2 3 mg/kg 2× wk ip): P < 0.01
p, frequency of anti-chromatin antibody secreting cells in spleen vs G6 Bortezomib 0.3 mg/kg 2× wk ip (NZM mice [3]; G2 3 mg/kg 2× wk ip): p < 0.05
p, frequency of anti-chromatin antibody secreting cells in spleen vs G9 Vehicle 1× wk ip (NZM mice [3]; G2 3 mg/kg 2× wk ip): p < 0.01
p, frequency of total IgG antibody secreting cells in spleen vs G5 Bortezomib 0.3 mg/kg 1× wk ip (NZM mice [3]; G2 3 mg/kg 2× wk ip): p < 0.001
p, frequency of total IgG antibody secreting cells in spleen vs G7 CTX 50 mg/kg 1× wk ip (NZM mice [3]; G2 3 mg/kg 2× wk ip): p < 0.01
p, frequency of total IgG antibody secreting cells in spleen vs G8 Dex 1.5 mg/kg 3× wk ip (NZM mice [3]; G2 3 mg/kg 2× wk ip): p < 0.01
p, frequency of total IgG antibody secreting cells in spleen vs G9 Vehicle 1× wk ip (NZM mice [3]; G2 3 mg/kg 2× wk ip): p < 0.01
ASC chromatin EOS, percent change vs vehicle (NZM mice [3]; G2 3 mg/kg ip, 2× wk): −100%
ASC total IgG EOS, percent change vs vehicle (NZM mice [3]; G2 3 mg/kg ip, 2× wk): −67%
total IgG producing ASC decrease vs vehicle (NZM mice [3]; spleen): 62-67%
p, serum concentration of collagen type I cross-linker vs G8 Dex 1.5 mg/kg 3× wk ip (NZM mice [4]; G1 3 mg/kg 1× wk ip): P < 0.01
Serum CTx linker AUC, percent change vs vehicle (NZM mice [4]; G1 3 mg/kg ip, 1× wk): −41%
p, serum concentration of collagen type I cross-linker vs G8 Dex 1.5 mg/kg 3× wk ip (NZM mice [4]; G2 3 mg/kg 2× wk ip): P < 0.01
Serum CTx linker AUC, percent change vs vehicle (NZM mice [4]; G2 3 mg/kg ip, 2× wk): −40%
serum CTx levels compared to vehicle (NZM mice [4]; treatment groups): no change in CTx levels
PD IκBα accumulation, percent change vs vehicle (IκBα [5]; G1 3 mg/kg ip, 1× wk): +33%
p, kidney IκBα accumulation 3 hours post dosing vs G9 Vehicle 1× wk ip (IκBα [5]; G2 3 mg/kg 2× wk ip): p < 0.05
PD IκBα accumulation, percent change vs vehicle (IκBα [5]; G2 3 mg/kg ip, 2× wk): +60%
kidney IκBα increase above vehicle (IκBα [5]; twice weekly administration): ~40%
combined average renal histopathology blinded score decrease vs vehicle (NZM mice [6]; Group 1 (regimen: Table 42)): 53%
combined average renal histopathology blinded score decrease vs vehicle (NZM mice [6]; Group 2 (regimen: Table 42)): 43.6%
combined average renal histopathology blinded score decrease vs vehicle (NZM mice [6]; Group 3 (regimen: Table 42)): 18.9%
combined average renal histopathology blinded score decrease vs vehicle (NZM mice [6]; Group 4 (regimen: Table 42)): 48.7%
combined average renal histopathology blinded score decrease vs vehicle (NZM mice [6]; Group 5 (regimen: Table 42)): 40.5%
p, serum C3 complement levels vs G6 Bortezomib 0.3 mg/kg 2× wk ip (NZM mice [7]; G1 3 mg/kg 1× wk ip): p < 0.01
p, serum C3 complement levels vs G7 CTX 50 mg/kg 1× wk ip (NZM mice [7]; G1 3 mg/kg 1× wk ip): p < 0.001
p, serum C3 complement levels vs G9 Vehicle 2× wk po (NZM mice [7]; G1 3 mg/kg 1× wk ip): p < 0.05
Serum C3 complement AUC, percent change vs vehicle (NZM mice [7]; G1 3 mg/kg ip, 1× wk): 45%
p, serum C3 complement levels vs G7 CTX 50 mg/kg 1× wk ip (NZM mice [7]; G2 3 mg/kg 2× wk ip): p < 0.05
Serum C3 complement AUC, percent change vs vehicle (NZM mice [7]; G2 3 mg/kg ip, 2× wk): 32%
serum C3 increase above vehicle (NZM mice [7]; once weekly): 45%
spleen 20S proteasome function decrease vs vehicle (20S proteasome; Group 1): 40%
spleen 20S proteasome function decrease vs vehicle (20S proteasome; Group 2): 45%
spleen 20S proteasome function decrease vs vehicle (20S proteasome; Group 3): 41%
PD EOS 20S proteasome, percent change vs vehicle (20S proteasome; G1: 3 mg/kg iv, 1× wk): −40%
PD EOS 20S proteasome, percent change vs vehicle (20S proteasome; G2: 3 mg/kg iv, 2× wk): −45%
PD EOS 20S proteasome, percent change vs vehicle (20S proteasome; G3: 10 mg/kg po, 2× wk): −41%
serum anti-dsDNA ANA decrease vs vehicle (NZM mice [8]; Group 1 (regimen: Table 42)): 79.6%
serum anti-smith ANA decrease vs vehicle (NZM mice [8]; Group 1 (regimen: Table 42)): 93.8%
serum anti-dsDNA ANA decrease vs vehicle (NZM mice [8]; Group 2 (regimen: Table 42)): 69.2%
serum anti-smith ANA decrease vs vehicle (NZM mice [8]; Group 2 (regimen: Table 42)): 85.0%
serum anti-dsDNA ANA decrease vs vehicle (NZM mice [8]; Group 4 (regimen: Table 42)): 84.1%
serum anti-smith ANA decrease vs vehicle (NZM mice [8]; Group 4 (regimen: Table 42)): 94.5%
serum anti-dsDNA ANA decrease vs vehicle (NZM mice [8]; Group 5 (regimen: Table 42)): 81.0%
serum anti-smith ANA decrease vs vehicle (NZM mice [8]; Group 5 (regimen: Table 42)): 92.4%
